For one experiment, the target named is T1, Thymidylate synthase (Lactobacillus casei, UniProt P00469).
T1 sequence (P00469 whole entry): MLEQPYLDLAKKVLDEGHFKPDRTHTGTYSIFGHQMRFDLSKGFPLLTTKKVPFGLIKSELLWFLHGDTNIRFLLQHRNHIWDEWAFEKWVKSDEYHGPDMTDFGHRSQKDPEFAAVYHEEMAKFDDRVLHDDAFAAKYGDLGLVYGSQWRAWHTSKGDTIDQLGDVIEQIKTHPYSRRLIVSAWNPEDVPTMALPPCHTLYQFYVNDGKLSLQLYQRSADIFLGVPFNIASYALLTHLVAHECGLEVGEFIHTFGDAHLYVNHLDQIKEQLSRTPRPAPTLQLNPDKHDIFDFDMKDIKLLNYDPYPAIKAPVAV
The experiment is described as follows: Competitive inhibition of thymidylate synthase purified from methotrexate-resistant Lactobacillus casei using 2'-deoxy[5-3H]uridine 5'-phosphate by radioisotope assay. Also on record: species or system Lacticaseibacillus casei.

Experiment [1] addresses T2, Thymidylate synthase (Lactobacillus casei) (UniProt P00469).
T2 sequence (whole entry): T1 sequence (P00469 whole entry)
Kind of experiment: Irreversible inhibition of thymidylate synthase purified from methotrexate-resistant Lactobacillus casei using 2'-deoxy[5-3H]uridine 5'-phosphate preincubated at 4 uM for 12 mins in absence of co-factor. The note with it: Lacticaseibacillus casei.

This note sets out measurements from ChEMBL document CHEMBL3244226, “5-Cyano-2'-deoxyuridine 5'-phosphate: a potent competitive inhibitor of thymidylate synthetase” (J Med Chem, 1979).

The structures appear in SMILES notation. Activity calls are given as the source filed them. The rule behind the calls is not given here.

`O=c1[nH]c(=O)n([C@H]2C[C@H](O)[C@@H](COP(=O)(O)O)O2)cc1[N+](=O)[O-]` gave an inhibition constant (Ki) on Thymidylate synthase of 29 nM. This counts as double-digit nanomolar.

Consider `N#Cc1cn([C@H]2C[C@H](O)[C@@H](COP(=O)(O)O)O2)c(=O)[nH]c1=O`, for which, at Thymidylate synthase, the affinity, expressed as Ki, was 550 nM. For the same compound, in experiment [1], the inhibition result was “inactive”.

At Thymidylate synthase, `O=c1[nH]c(=O)n([C@H]2C[C@H](O)[C@@H](COP(=O)(O)O)O2)cc1S` showed a Ki of 40 nM.
